Experimental data published in ChEMBL document CHEMBL1201862, “PubChem BioAssay data set” (2004).
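Results reflect a 48-hour exposure of cells in 96-well plates to compound at five concentrations. The concentration for 50% growth inhibition is given as GI50.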 Calls of active or inactive are those of the source. Cut-off read from the data, not from the text of the source: active = GI50 up to about 1.1 µM and inactive = higher.

Experiments:
Assay in all cases: growth of human tumour cells (NCI), 48 h
[1] = tested on: NCI-H522
[2] = tested on: EKVX
[3] = tested on: SK-MEL-28
[4] = tested on: Malme-3M
[5] = tested on: MDA-MB-435
[6] = tested on: UO-31
[7] = tested on: OVCAR-4
[8] = tested on: UACC-257
[9] = tested on: NCI-H226
[10] = tested on: DU-145
[11] = tested on: OVCAR-5
[12] = tested on: RXF 393
[13] = tested on: A549
[14] = tested on: SF-295
[15] = tested on: HCT-116
[16] = tested on: MDA-MB-231
[17] = tested on: HCC 2998
[18] = tested on: RPMI-8226
[19] = tested on: MOLT-4
[20] = tested on: HOP-92

| Structure (SMILES) | GI50 [1] | GI50 [2] | GI50 [3] | GI50 [4] | GI50 [5] | GI50 [6] | GI50 [7] | GI50 [8] | GI50 [9] | GI50 [10] | GI50 [11] | GI50 [12] | GI50 [13] | GI50 [14] | GI50 [15] | GI50 [16] | GI50 [17] | GI50 [18] | GI50 [19] | GI50 [20] |
| --- | --- | --- | --- | --- | --- | --- | --- | --- | --- | --- | --- | --- | --- | --- | --- | --- | --- | --- | --- | --- |
| COC(=O)[C@@H](N1C(=O)c2ccccc2C1=O)C1(C)CC(Cl)=NO1 (some centres not stated) | 35 µM (inactive) | 38.8 µM (inactive) | > 100 µM (inactive) | > 100 µM (inactive) | > 100 µM (inactive) | > 100 µM (inactive) | > 100 µM (inactive) | > 100 µM (inactive) | 38.8 µM (inactive) | 44 µM (inactive) | > 100 µM (inactive) | 41.5 µM (inactive) | 86.1 µM (inactive) | 28.1 µM (inactive) | 75.5 µM (inactive) | 19.1 µM (inactive) | > 100 µM (inactive) | > 100 µM (inactive) | – | – |
| Cc1ccc(NC(=O)/C=C/c2ccccc2)c(C)c1 | 30 µM (inactive) | 26.6 µM (inactive) | > 100 µM (inactive) | 86.9 µM (inactive) | > 100 µM (inactive) | – | > 100 µM (inactive) | > 100 µM (inactive) | 13.9 µM (inactive) | > 100 µM (inactive) | > 100 µM (inactive) | – | > 100 µM (inactive) | – | > 100 µM (inactive) | 52.1 µM (inactive) | > 100 µM (inactive) | > 100 µM (inactive) | > 100 µM (inactive) | – |
| O=C(Cn1cc(F)c(=O)[nH]c1=O)C12CC3CC(CC(C3)C1)C2 | > 100 µM (inactive) | > 100 µM (inactive) | > 100 µM (inactive) | > 100 µM (inactive) | > 100 µM (inactive) | > 100 µM (inactive) | > 100 µM (inactive) | > 100 µM (inactive) | – | > 100 µM (inactive) | > 100 µM (inactive) | > 100 µM (inactive) | > 100 µM (inactive) | > 100 µM (inactive) | > 100 µM (inactive) | > 100 µM (inactive) | > 100 µM (inactive) | > 100 µM (inactive) | > 100 µM (inactive) | – |
| CC(=O)c1sc2n(C)c(=O)c3ccccc3[n+]2c1C | > 100 µM (inactive) | > 100 µM (inactive) | > 100 µM (inactive) | – | > 100 µM (inactive) | > 100 µM (inactive) | > 100 µM (inactive) | > 100 µM (inactive) | > 100 µM (inactive) | > 100 µM (inactive) | > 100 µM (inactive) | > 100 µM (inactive) | > 100 µM (inactive) | > 100 µM (inactive) | > 100 µM (inactive) | > 100 µM (inactive) | > 100 µM (inactive) | > 100 µM (inactive) | > 100 µM (inactive) | 46.5 µM (inactive) |
| O=[N+]([O-])c1cccc2nccc(NCCCO)c12 | 6 µM (inactive) | 6.79 µM (inactive) | 12.4 µM (inactive) | 10.2 µM (inactive) | 11.7 µM (inactive) | 16 µM (inactive) | 11 µM (inactive) | 11.4 µM (inactive) | 23 µM (inactive) | 16.8 µM (inactive) | 20.1 µM (inactive) | 6.17 µM (inactive) | 16.5 µM (inactive) | 15.5 µM (inactive) | 13 µM (inactive) | 23 µM (inactive) | 13.2 µM (inactive) | 13.6 µM (inactive) | 13.9 µM (inactive) | – |
| COC(=O)C1=C(OC(=O)/C(=C/c2ccc(Cl)cc2)c2ccc(Cl)cc2)C(C(=O)OC)[C@]2(O)[C@@H](C(=O)OC)[C@H]1C[C@@H](c1ccccc1)[C@@H]2C(=O)OC (some centres not stated) | 3.85 µM (inactive) | 70.5 µM (inactive) | > 100 µM (inactive) | – | > 100 µM (inactive) | – | > 100 µM (inactive) | > 100 µM (inactive) | > 100 µM (inactive) | > 100 µM (inactive) | > 100 µM (inactive) | > 100 µM (inactive) | 52.8 µM (inactive) | 29.6 µM (inactive) | > 100 µM (inactive) | 50.6 µM (inactive) | – | – | 2.22 µM (inactive) | – |
| O=C(N/N=C(COc1ccccc1Cl)\N=C\c1cccnc1)c1ccncc1 | > 100 µM (inactive) | > 100 µM (inactive) | > 100 µM (inactive) | > 100 µM (inactive) | > 100 µM (inactive) | – | > 100 µM (inactive) | > 100 µM (inactive) | > 100 µM (inactive) | > 100 µM (inactive) | > 100 µM (inactive) | > 100 µM (inactive) | > 100 µM (inactive) | > 100 µM (inactive) | > 100 µM (inactive) | > 100 µM (inactive) | > 100 µM (inactive) | > 100 µM (inactive) | > 100 µM (inactive) | – |
| O=C1OC(c2ccccc2)=N/C1=C\c1cn[nH]n1 | – | > 100 µM (inactive) | > 100 µM (inactive) | 83.4 µM (inactive) | > 100 µM (inactive) | > 100 µM (inactive) | > 100 µM (inactive) | > 100 µM (inactive) | > 100 µM (inactive) | > 100 µM (inactive) | > 100 µM (inactive) | > 100 µM (inactive) | > 100 µM (inactive) | > 100 µM (inactive) | > 100 µM (inactive) | > 100 µM (inactive) | > 100 µM (inactive) | > 100 µM (inactive) | > 100 µM (inactive) | > 100 µM (inactive) |
| O=C(N/C(=C\c1ccccc1)c1nc2ccccc2c(=O)o1)c1ccccc1 | 38.9 µM (inactive) | 57.3 µM (inactive) | > 100 µM (inactive) | > 100 µM (inactive) | 23.6 µM (inactive) | > 41.6 µM (inactive) | > 88.5 µM (inactive) | > 43.1 µM (inactive) | > 67.6 µM (inactive) | > 76.7 µM (inactive) | > 88.9 µM (inactive) | > 62.5 µM (inactive) | > 100 µM (inactive) | 36.2 µM (inactive) | > 55.3 µM (inactive) | > 38.3 µM (inactive) | > 100 µM (inactive) | > 100 µM (inactive) | > 100 µM (inactive) | – |
| O=C1C=CC[C@H]2O[C@@H](COC(=O)Cc3ccccc3)C[C@H]2O1 | – | 29.5 µM (inactive) | 21.9 µM (inactive) | – | 40.5 µM (inactive) | 32 µM (inactive) | 24 µM (inactive) | 40.4 µM (inactive) | 35.4 µM (inactive) | 88.9 µM (inactive) | 42.6 µM (inactive) | – | 27.1 µM (inactive) | 30.4 µM (inactive) | – | 63.7 µM (inactive) | – | 28.8 µM (inactive) | 25.4 µM (inactive) | 28.1 µM (inactive) |
| CSCCCCCCCCCCOc1ccc(C=C2C(=C(C#N)C#N)c3ccccc3C2=C(C#N)C#N)cc1 | 19.5 µM (inactive) | 18.1 µM (inactive) | 16.1 µM (inactive) | – | 16.7 µM (inactive) | 16.3 µM (inactive) | 18.3 µM (inactive) | 18.9 µM (inactive) | 30.4 µM (inactive) | 15.6 µM (inactive) | 16.6 µM (inactive) | 17.3 µM (inactive) | – | 17.2 µM (inactive) | 16.9 µM (inactive) | 19.4 µM (inactive) | – | 28.8 µM (inactive) | 19.2 µM (inactive) | 11.7 µM (inactive) |
| COc1cc(CCN(C)C)cc(OC)c1OC | > 100 µM (inactive) | > 100 µM (inactive) | – | – | > 100 µM (inactive) | – | > 100 µM (inactive) | > 100 µM (inactive) | > 100 µM (inactive) | > 100 µM (inactive) | > 100 µM (inactive) | > 100 µM (inactive) | > 100 µM (inactive) | > 100 µM (inactive) | > 100 µM (inactive) | > 100 µM (inactive) | > 100 µM (inactive) | > 100 µM (inactive) | > 100 µM (inactive) | > 100 µM (inactive) |
| CC(C)c1ccc2c(c1)C=C1OC(=O)[C@]3(C)CCC[C@@]2(C)C13 (some centres not stated) | 73.5 µM (inactive) | > 100 µM (inactive) | > 100 µM (inactive) | – | > 100 µM (inactive) | > 100 µM (inactive) | > 100 µM (inactive) | > 100 µM (inactive) | > 100 µM (inactive) | > 100 µM (inactive) | – | > 100 µM (inactive) | > 100 µM (inactive) | > 100 µM (inactive) | > 100 µM (inactive) | > 100 µM (inactive) | > 100 µM (inactive) | > 100 µM (inactive) | > 100 µM (inactive) | – |
| COc1ccc2cc(C(C)C(=O)N3C(=O)OCC3(C)C)ccc2c1 (configuration not stated) | – | > 100 µM (inactive) | > 100 µM (inactive) | > 100 µM (inactive) | > 100 µM (inactive) | > 100 µM (inactive) | > 100 µM (inactive) | > 100 µM (inactive) | > 100 µM (inactive) | > 100 µM (inactive) | > 100 µM (inactive) | – | > 100 µM (inactive) | > 100 µM (inactive) | > 100 µM (inactive) | > 100 µM (inactive) | > 100 µM (inactive) | > 100 µM (inactive) | > 100 µM (inactive) | > 100 µM (inactive) |
| COc1ccc2nc(-c3ccc(O)cc3)sc2c1 | 16.8 µM (inactive) | 18.1 µM (inactive) | – | 23.5 µM (inactive) | 25.2 µM (inactive) | 16.1 µM (inactive) | 28.5 µM (inactive) | 21.6 µM (inactive) | 23.5 µM (inactive) | 34.7 µM (inactive) | 17.7 µM (inactive) | 20.1 µM (inactive) | 36.6 µM (inactive) | 19.8 µM (inactive) | 17.5 µM (inactive) | 23 µM (inactive) | – | < 0.01 µM (active) | 27.9 µM (inactive) | – |
